Assay: Inhibition of influenza A virus H1N1 endonuclease (1 to 204 residues) expressed in Escherichia coli BL21 (RIL) using (6-FAM)-TGGCAATATCAGCTCCACA(MGBNFQ) single-stranded DNA probe by fluorimetry

First: O=c1[nH]cc(-c2ccc(F)cc2)cc1O
Second: O=c1[nH]c(-c2ccc(F)cc2)ccc1O
The IC50 of the first is 1.7-fold higher: 730 nM for the first, 430 nM for the second.

Going from `O=c1[nH]cc(-c2ccc(F)cc2)[nH]c1=O` to `O=c1[nH]cnc(-c2ccc(F)cc2)c1O`, the IC50 rises from 59000 nM to greater than 193000 nM. The first is the more potent here.

`O=c1[nH]c(-c2ccc(F)cc2)ncc1O` and `N#Cc1ccc(-c2ncc(O)c(=O)[nH]2)cc1` are within 1.5-fold of each other in IC50: 580 nM for the first, 520 nM for the second.

Compared with `O=c1[nH]c(-c2cccc(F)c2)ncc1O`, `N#Cc1cccc(-c2ncc(O)c(=O)[nH]2)c1` is 6.2-fold lower in IC50: 1560 nM for the first, 250 nM for the second. The second is the more potent here.

Compared with `O=c1[nH]c(-c2ccccc2F)ncc1O`, `O=c1[nH]c(-c2ccccc2-c2ccccc2)ncc1O` is 1.5-fold lower in IC50: 1670 nM for the first, 1100 nM for the second. The second is the more potent here.

First: O=c1[nH]c(-c2ccc(-c3ccccc3)cc2)ncc1O
Second: O=c1[nH]c(-c2cccc(-c3ccccc3)c2)ncc1O
The IC50 of the first is 5.6-fold higher: 2240 nM for the first, 400 nM for the second.

Going from `O=c1[nH]c(-c2ccc(-c3nnn[nH]3)cc2)ncc1O` to `O=c1[nH]c(-c2cccc(-c3nnn[nH]3)c2)ncc1O`, the IC50 rises from 150 nM to 480 nM (3.2-fold).

First: O=c1[nH]ncc(-c2ccc(F)cc2)c1O
Second: O=c1[nH]nc(-c2ccc(F)cc2)cc1O
The IC50 of the first is 30-fold higher: 177000 nM for the first, 6000 nM for the second. The second is the more potent here.

Compared with `N#Cc1ccc(-c2cc(O)c(=O)[nH]n2)cc1`, `O=c1[nH]nc(-c2ccc(-c3nnn[nH]3)cc2)cc1O` is 3.1-fold lower in IC50: 9300 nM for the first, 3000 nM for the second.
